The assay has as its target T1, mPGES-1 (Homo sapiens, UniProt O14684).
T1 construct: made in house; host or cells: E. coli (membrane fraction)
T1 sequence (O14684 1-152): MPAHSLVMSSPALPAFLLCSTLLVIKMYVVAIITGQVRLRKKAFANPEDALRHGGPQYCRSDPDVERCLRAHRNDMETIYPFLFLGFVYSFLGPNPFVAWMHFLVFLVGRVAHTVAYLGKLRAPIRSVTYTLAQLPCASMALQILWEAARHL
The experiment in a line: mPGES-1 assay: conversion of PGH2 to PGE2, HPLC analysis. Type of assay: biochemical. Conditions: mPGES-1 expressed in E. coli; 25 min preincubation with inhibitor, 60 s with PGH2, room temperature. The procedure:
In the assay in PGES-1 catalyses the reaction where the substrate PGH2 is converted to PGE2. mPGES-1 is expressed in E. coli and the membrane fraction is dissolved in 20 mM NaPi-buffer pH 8.0 and stored at −80° C. In the assay mPGES-1 is dissolved in 0.1M KPi-buffer pH 7.35 with 2.5 mM glutathione. The stop solution consists of H2O/MeCN (7/3), containing FeCl2 (25 mM) and HCl (0.15 M). The assay is performed at room temperature in 96-well plates. Analysis of the amount of PGE2 is performed with reversed phase HPLC (Waters 2795 equipped with a 3.9×150 mm C18 column). The mobile phase consists of H2O/MeCN (7/3), containing TFA (0.056%), and absorbance is measured at 195 nm with a Waters 2487 LTV-detector.
The following is added chronologically to each well: • 1. 100 μL mPGES-1 in KPi-buffer with glutathione. Total protein concentration: 0.02 mg/mL. • 2. 1 μL inhibitor in DMSO. Incubation of the plate at room temperature for 25 minutes. • 3. 4 μL of a 0.25 mM PGH2 solution. Incubation of the plate at room temperature for 60 seconds. • 4. 100 μL stop solution. • 180 μL per sample is analyzed with HPLC.

`CC(C)Oc1ccc(-n2c(C(=O)O)cc3cc(Oc4cccc(C(F)(F)F)c4)ncc32)cc1` [Example 1, 1-(4-Isopropoxyphenyl)-5-(3-trifluoromethylphenoxy)pyrrolo[2,3-c]pyridine-2-carboxylic Acid] came in with an IC50 of 2300 nM. The result for `CC(C)Oc1ccc(-n2c(C(=O)O)cc3c(-c4ccc(C(F)(F)F)cc4)nc(Cl)cc32)cc1` [Example 3, 6-Chloro-1-(4-isopropoxyphenyl)-4-(4-trifluoromethylphenyl)pyrrolo[3,2-c]pyridine-2-carboxylic acid] reads 750 nM.

(Values after patent US20090048285A1, “Pyrrolopyridines Useful in the Treatment of Inflammation” (priority 2005, published 2009).)
